Consider one compound from US20260085315A1, “POLYNUCLEOTIDE COMPOSITIONS AND METHODS FOR TREATMENT OF CANCER” (APTAH BIO, INC., priority 2023, published 2026).

Holding throughout (assay type): in vivo, athymic nude mice
Assay [1] concerns Human Glioblastoma Cancer (U-87MG) xenograft. As to the kind of experiment: Histopathology of tumor samples with scoring. The arrangement: key to Score: Grade: 1: I; 2: II; 3: III; 4: IV; key to Score: Connective tissue stroma: 1: Minimal Fibrosis; 2: Mild Fibrosis; 3: Moderate Fibrosis; 4: Prominent; key to Score: N:C ratio: 3: High; 2: Low to High; 1: Low; key to Score: Apoptosis / Score: Lipid content: 4: Minimal; 3: Mild; 2: Moderate; 1: Prominent. The note with it: individual animals; G3 APT20TTMG, G2 TMZ. An excerpt: (§1) The fixed tissues were processed for routine paraffin embedding followed by sectioning (3-6 micron). The sections were stained with hematoxylin and eosin. The prepared slides were examined under microscope by the study pathologist to record histopathological findings in tumor samples, related to capsule formation, cell type, connective tissue stroma, apoptosis, necrosis, lipid content, nucleus-to-cytoplasmic (N:C) ratio, nuclei mitotic figures, tumor grade, and level of differentiation. Each histopathological finding and tumor volume were assigned a score ranging from 1 to 4 (Table 7). The sum of these scores for each sample was used to infer the tumor aggressiveness.

Assay [2] shares this test system. As to the kind of experiment: Human glioblastoma xenograft tumor growth. The note with it: for tumor reduction in relation to the negative control: APT20TTMG 20 mg/kg i.v. q3d, TMZ 5 mg/kg p.o. daily. As to the method:
Subcutaneous inoculation of the tumorigenic Human Glioblastoma Cancer Cell line (U-87MG) results in the formation of solid tumor in athymic nude mice. Under pathogen free conditions, the tumor retains its own characteristics and grows using the growth factors supplied by the host animal. The ability of administered ASMO1 to inhibit the growth of tumor can be a valuable tool to evaluate its efficacy as an anti-tumor agent. Measurement of tumor size at defined intervals of time generates data that can be used to calculate various end point parameters derived from tumor and understand the potency of the test compounds.
Human glioblastoma cancer cells (U-87MG) were cultured and expanded in EMEM (Eagle's Minimum Essential Medium) supplemented with 10% Fetal Bovine Serum (FBS) at 37° C. and 5% CO2. The cells growing at log phase were harvested by trypsinization and centrifuged for 3 minutes at 800 rpm to form a pellet. The pellet was further washed with PBS. Cell suspension stock was prepared to obtain the required cell count. Before cell inoculation, cell viability was determined using trypan blue. 25 μL of cell suspension was stained with 25 μL of trypan blue and viable cells were counted using Neubauer's chamber. Cell number was adjusted by adding serum free media to achieve desired concentration, i.e., 10×10^7/mL.
Cells were diluted such that the concentration of the cells was 10 million cells/100 μL of serum free medium. Overnight thawed Matrigel and cells with medium were mixed 1:1 and a total volume of 200 μL was injected subcutaneously to the donor animals (n=5) at flank region.
Donor animals were monitored for solid tumor growth for at least 3-4 weeks. Tumor size was measured using digital caliper (MITUTOYO, Japan, CP-15Mx) and volume was calculated by using the formula: (L*W2)/2. Once the tumor reached required size ˜500 mm^3, the donor animals were humanely sacrificed, the tumor was harvested and fragmented into ˜30 mg size and implanted subcutaneously to experimental animals (n=50) using the device. All the animals was monitored alternate day for tumor growth/size.
Once the tumor size reached ˜100 mm^3, animals were selected and randomized by stratification method using tumor size into three groups (G1-G3). Treatment for G1-G3 was initiated at this stage. Each group was comprised of 8 animals.
• G1 was served as vehicle control group and treated with normal saline at the dose of 5 mL/kg, daily, intravenously for 3 weeks. • G2 was served as Reference Item treated group and treated with TMZ at the dose of 5 mg/kg, p.o., daily for 3 weeks. • G3 was treated with APT20TTMG at the dose of 20 mg/kg, intravenously, every third day (q3d) for 3 weeks.
Body weight and tumor size were measured weekly twice using digital caliper. At termination, blood was collected through retro-orbital route. Serum/plasma was separated and stored at deep freezer (−20° C.). Post blood collection, animals were humanely sacrificed by CO2 asphyxiation as per latest guidelines issued by CPCSEA. All the vital organ (brain, kidney, liver, lungs, heart) and tumor were dissected out. Vital organs were fixed in 10% NBF and stored. Tumor tissue was dissected out, weighed and portion of tumor tissue was fixed in 10% NBF and another portion is snap frozen and stored at deep freezer (−80° C.).
As shown in FIG. 34A-C, tumor fragments from the U-87MG cell line were implanted in the animals and once the tumor size reached ˜100 mm^3 animals were randomized into 3 experimental groups (G1, G2, and G3). G1: Vehicle, (G2) Reference Item Temozolomide, and (G3) APT20TTMG for a total of 22 days. (A) The tumor volume of the animals was measured twice/a week. (B) Animals were weighed throughout the experiment and the change in weight gain compared to pre-treatment weight was plotted. (C) After the euthanasia of the animals, the tumors were removed and weighed.

Assay [3] shares this test system. The assay is described as follows: Histopathology of tumor samples with scoring. The arrangement: key: 1: Minimal Fibrosis; 2: Mild Fibrosis; 3: Moderate Fibrosis; 4: Prominent. Conditions: individual animals; G3 APT20TTMG, G2 TMZ.
Source text: as §1

Assay [4] has the same test system. The assay is described as follows: Histopathology of tumor samples with scoring. Further details: key: 1: Few; 2: Moderate; 3: Large. Conditions: individual animals; G3 APT20TTMG, G2 TMZ.
Source text: as §1

The test system is the same in assay [5]. As to the kind of experiment: Histopathology of tumor samples with scoring. The arrangement: key: 4: Minimal; 3: Mild; 2: Moderate; 1: Prominent. Conditions: individual animals; G3 APT20TTMG, G2 TMZ.
Source text: as §1

Values joined by “and” are separate entries in the source; they are usually repeats but may differ in a detail not shown here. Identical values can stand only once. “Also recorded” adds a separate entry of the source.

Consider `Cn1nnc2c(C(N)=O)ncn2c1=O` [TMZ, Temozolomide, reference compound], for which, in assay [1], the “Histopathological findings: Grade” value is given as “Grade- 2; also recorded: Grade- 3”; the “Score: Apoptosis” value is 3 (7×) and 2; the “Score: Connective tissue stroma” value was 3 (2×) and 2 (5×) and 1; the “Score: Grade” value is 2 (5×) and 3 (3×). In assay [1], the “Score: Lipid content” value was 3 (4×) and 2 and 1 (3×); the “Score: N:C ratio” value came out at 2; the “Score: Volume Tumor” value is 4 (>1500) and 1 (<500) (2×) and 2 (500-1000) (2×) and 3 (1000-1500) (3×). For the same compound, the “tumor reduction in relation to the negative control” value in assay [2] (day 20) is 41.3±11.1%. Also, the “tumor reduction in relation to the negative control” value in assay [2] (day 22) is listed as 31.1±13.4%. Also, the “Volume (tumor)” value in assay [2] (individual animals, G3 APT20TTMG, G2 TMZ) is given as “Volume 1593.8; also recorded: Volume 113.1; also recorded: Volume 937.9; also recorded: Volume 339.1; also recorded: Volume 1447.2; also recorded: Volume 830.6; also recorded: Volume 1277.9; also recorded: Volume 1479.7”. The “Score: Necrosis” value in assay [3] is 4. In addition, the “Score: Mitotic figures” value in assay [4] was 3 (4×) and 1 (4×). In assay [5], the “Score: Necrosis” value was found to be 3.
